US20240117334A1, “FACTOR B PROTEASES” (Vertex Pharmaceuticals Incorporated, priority 2021, published 2024)

Experiments:
Type in all cases: biochemical
[1] = test system: human Factor B depleted sera with Factor B, rabbit red blood cells; assay: Enhanced AP RBC hemolysis assay (Factor B depleted sera with Factor B spiked back); set-up: unit of the concentration uncertain
Experimental: (§1) Percent lysis was calculated using the following formula: [(OD415 of sample−OD415 EDTA negative control)/(OD415 saline positive control-OD415 EDTA)*100 ] (Table 17A and Table 17B). IC50s were calculated by nonlinear regression (Prism 9, log(inhibitor,bv) vs. response-4 parameter variable slope model) (Table 18A and Table 18B).

[2] = test system: 20% Normal Human Serum, rabbit red blood cells; assay: Standard Alternative Pathway (AP) RBC hemolysis assay; set-up: unit of the concentration uncertain
Experimental: as §1

Human Factor B [3] = molecular target: T1, Human Factor B (Homo sapiens, UniProt P00751); assay: Mass spectrometry identification of Factor B cleavage sites
Experimental: FIG. 9 depicts mass spectrometry (MS) data identifying the cleavage site at 234 Arg within the QQKR/KIV (SEQ ID NO: 9) cleavage site of Factor B by KLK5, and identifying the cleavage site at ^221Asp within the EGVDAE (SEQ ID NO: 13) cleavage site of Factor B by the chymase-based engineered protease C22S/A226R. Briefly, human Factor B (Comptech) was incubated at 2 μM with different concentration of Kallikrein 5 (KLK5, R&D Systems) or the chymase-based engineered protease C22S/A226R at 10 nM or 100 pM for 10 minutes to 1 hour at 37° C. in 20 mM Tris pH 8 buffer with 16-0 or 18-0 water. The reaction was quenched with 20 μM of inhibitor FFR-CMK for 30 minutes at room temperature. Half of the sample was further treated with Rapidgest/chymotrypsin and adjusted to pH 3 by the addition of […] 1% TFA. TCEP (100 mM final concentration) was then added to reduce disulfides for 30 minutes at 37° C. […] of each sample was bound to a Ziptip (Millipore) and eluted with […] 80% ACN-0.1% TFA. After drying in a Speedvac, the samples were re-dissolved in […] of 30% ACN-0.05% TFA. 0.35 mL of the sample was loaded with 0.45 mL of CHCA matrix (10 mg/mL) onto an OptiPlate, and analyzed by MALDI-MS (ABI 4700) in both linear (m/z 2-22k) and reflector (m/z 1500-5400) mode. The tandem MS was carried out on peptides of interest when possible. Two large peptide fragments were detected at […] and 59 kDa. In summary, 100 pM KLK5 cleaves at 1 of 38 Arg in a 10 minute reaction and in 4 out of 38 Arg in a 60 minute reaction (Arg175, Arg193, Arg730 and Arg739). At 10 nM, cleavage was detected in […] in 10 and 60 minute reactions (Arg50, Arg74, Arg94, Arg175, Arg182, Arg193, Arg202, Arg203, Arg259, Arg381, Arg415, Arg658, Arg679, Arg708, Arg710, Arg730, Arg739). The earliest cleavage event was at Arg 730.
The reconstructed ion chromatograms shown in FIG. 9 are of reaction products from Kallikrein-5 (“KLK”), the chymase-based engineered protease C22S/A226R (“chymase-based”), and plasma derived-Factor B (“Fb control”). […] In contrast, KLK5 cleaves Factor B at ^234 Arg (peak at 4.69 minutes, MW 61437).

Human Factor B [4] = molecular target: T1, Human Factor B; assay: Factor B cleavage by KLK5, Factor B ELISA; conditions: 4 μM Factor B, 1 hour at 37° C., two stocks
Experimental: FIG. 7B depicts a graph showing Factor B cleavage with KLK5 and a chymase-based engineered protease C22S/F173Y/D175N/A226R. Briefly, A digestion reaction is prepared with 4.0 uM of Human Factor B (Complement Technologies) in 20 μL buffer (50 mM Tris pH 7.4/50 mM NaCl/0.01% Tween 20). Different concentrations of KLK5 (400, 200, 100, 50, 25, 12.5, 6.25, 3.125, 1.56, 0.78, and 0.39 with a control at 0.0 nM) are added to 4 μM of factor B and incubated for 1 hour at 37° C. After digestion, 15 μL of the reaction is transferred to a 96 well plate with 1.5 μL of 0.2N HCL. After quenching, the reactions are prepared factor B ELISA.
A Factor B standard curve is made with 800, 533.3, 355.5, 237.0, 158.0, 105.3, 70.2, 46.8, 31.2, 20.8, 0.0 pM in 1% BSA-PBST. A 384 well plate was coated with the monoclonal antibody against human Factor Ba (#A225, Quidel) at 2 μg/mL in carbonate buffer (25 μL/well). […]
The biotinylated monoclonal antibody against human Factor Bb (Quidel) was then added at 0.125 μg/ml to detect the bound Factor B. Streptavidin-HRP was then diluted at 1:200 in blocking buffer (25 μL/well) and the plate was agitated for 30 minutes at room temperature. The plate was developed with ELISABright, (50 μL/well) for 1 minute at room temperature and read in the EnVision plate reader. […]

[5] = test system: Human Factor B digests in human Factor B Depleted Serum, rabbit red blood cells; assay: Hemolysis assay with Factor B digests (KLK5 and chymase-based protease); conditions: 4 μM Factor B digested 1 hour at 37° C., 15% serum
Experimental: FIG. 7A depicts a graph showing hemolysis inhibition by KLK5 and compared with a chymase-based engineered protease C22S/F173Y/D175N/A226R. All references in this Example to engineered proteases are depicted in chymotrypsin numbering. The chymotrypsin numbering key for the modified protease domains of engineered proteases are found in Tables 2, 4, and 6 for uPA, MTSP-1, and chymase, respectively. Briefly, a digestion reaction was prepared with 4.0 μM of Human Factor B (Complement Technologies) in 20 μL buffer (50 mM Tris pH 7.4/50 mM NaCl/0.01% Tween 20). Different concentration of the KLK5 protease or the chymase-based engineered protease C22S/F173Y/D175N/A226R (400, 200, 100, 50, 25, 12.5, 6.25, 3.125, 1.56, 0.78, and 0.39 with a control at 0.0 nM) were added to 4 μM of Factor B and incubated for 1 hour at 37° C. After digestion, 6 μL of the reaction was evaluated in a hemolysis assay.
The Factor B digestion reactions were diluted in 20 μL of GVB (Complement Technologies), 10 mM MgCl2 and 8 mM EGTA (GVB/Mg/EGTA). 45 μL of human Factor B Depleted Serum (Complement Technologies) was then added to 5 μL of human Factor B digests to obtain a final volume of 90% serum. In parallel, 50 μL of rabbit red blood cells (Colorado Serum Co.) were diluted into 950 μL of GVB/Mg/EGTA and mixed gently. […] The plate absorbance was read at 415 nm with a spectrophotometer and the EC50 was calculated.

[6] = concentration 0.33 (unit uncertain)
[7] = concentration 1 (unit uncertain)
[8] = concentration 3 (unit uncertain)
[9] = concentration 10 (unit uncertain)

T1 sequence (P00751 26-764): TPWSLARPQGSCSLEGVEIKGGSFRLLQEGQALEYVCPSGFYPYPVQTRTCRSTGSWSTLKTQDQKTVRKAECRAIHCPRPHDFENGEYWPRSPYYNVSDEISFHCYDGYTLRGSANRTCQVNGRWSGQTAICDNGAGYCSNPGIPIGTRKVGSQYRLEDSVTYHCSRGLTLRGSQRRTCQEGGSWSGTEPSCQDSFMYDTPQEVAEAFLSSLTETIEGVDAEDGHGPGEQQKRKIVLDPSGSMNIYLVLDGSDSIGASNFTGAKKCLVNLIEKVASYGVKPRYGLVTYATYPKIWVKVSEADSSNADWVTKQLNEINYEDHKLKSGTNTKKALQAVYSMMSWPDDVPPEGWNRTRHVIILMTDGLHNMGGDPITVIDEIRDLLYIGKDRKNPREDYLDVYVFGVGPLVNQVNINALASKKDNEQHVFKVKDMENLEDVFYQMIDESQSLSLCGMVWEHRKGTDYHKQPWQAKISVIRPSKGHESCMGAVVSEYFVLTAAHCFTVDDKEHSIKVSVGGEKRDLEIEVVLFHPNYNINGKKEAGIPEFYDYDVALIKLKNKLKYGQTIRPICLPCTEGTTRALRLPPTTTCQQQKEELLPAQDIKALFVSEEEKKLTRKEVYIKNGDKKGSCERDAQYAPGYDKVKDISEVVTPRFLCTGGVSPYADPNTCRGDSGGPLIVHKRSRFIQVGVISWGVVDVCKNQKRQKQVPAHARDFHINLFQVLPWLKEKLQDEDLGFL

Row | Molecule | % Hemolysis [1, 6] | % Hemolysis [1, 7] | % Hemolysis [1, 8] | % Hemolysis [1, 9] | % Hemolysis [2, 6] | % Hemolysis [2, 7] | % Hemolysis [2, 8] | % Hemolysis [2, 9] | earliest cleavage event (Human Factor B [3]) | remaining intact Factor B (reconstructed ion chromatogram) (Human Factor B [3]) | number of Arg of Factor B cleaved (Human Factor B [3]; 100 pM, 10 minute reaction) | number of Arg of Factor B cleaved (Human Factor B [3]; 100 pM, 60 minute reaction) | number of Arg of Factor B cleaved (Human Factor B [3]; 10 nM, 10 and 60 minute reactions) | cleavage of Factor B (ELISA) (Human Factor B [4]) | inhibition of hemolysis [5]
1 | CCO[C@H]1CCN(Cc2c(OC)cc(C)c3[nH]ccc23)[C@H](c2ccc(C(=O)O)cc2)C1 [LNP023] | 102.50% | 108.48% | 33.94% | 0% | 0% | 1.16% | 0% | 0% | – | – | – | – | – | – | –
2 | KLK5: Kallikrein-related peptidase 5 protease (R&D Systems) | – | – | – | – | – | – | – | – | Arg 730 | No remaining intact Factor B | 1 of 38 | 4 out of 38 | 18 of 38 | effective in cleavage Factor B | effective in inhibition of hemolysis
